{"source": "ChEMBL document CHEMBL3885861", "about": "“Open TG-GATES”", "organism": "Rattus norvegicus", "experiment": "Open TG-GATES - Regimen: Single", "assay_type": "toxicity, organism-based, Sprague-Dawley", "design": "regimen Single, gender Male, age 6 weeks", "conditions": "in vivo, po, 30 mg/kg, route gavage, dose level Middle; for Bas / Eos / Hb / Ht / Lym / MCH / MCHC / MCV / Mono / Neu / Plat / RBC / Ret / WBC: tissue Blood; for KIDNEY_L / KIDNEY_R / KIDNEY_TOTAL: tissue Kidney; for LIVER: tissue Liver; for A/G / ALP / ALT / AST / BUN / CRE / Ca / Cl / DBIL / GLC / IP / K / LDH / Na / PL / RALB / TBIL / TC / TG / TP / gamma-GTP: tissue Plasma", "data": [{"smiles": "Cc1ccc2cc3c(ccc4ccccc43)c3c2c1CC3", "note": "[3-METHYLCHOLANTHRENE]", "values": [{"measurement": "TERMINAL_BW", "setting": "3 h", "value": 211.6, "unit": "g"}, {"measurement": "Bas", "setting": "3 h", "value": 0, "unit": "%"}, {"measurement": "Eos", "setting": "3 h", "value": 0.8, "unit": "%"}, {"measurement": "Hb", "setting": "3 h", "value": 12.5, "unit": "g/dL"}, {"measurement": "Ht", "setting": "3 h", "value": 38.3, "unit": "%"}, {"measurement": "Lym", "setting": "3 h", "value": 73.4, "unit": "%"}, {"measurement": "MCH", "setting": "3 h", "value": 20.6, "unit": "pg"}, {"measurement": "MCHC", "setting": "3 h", "value": 32.6, "unit": "%"}, {"measurement": "MCV", "setting": "3 h", "value": 63.1, "unit": "fL"}, {"measurement": "Mono", "setting": "3 h", "value": 3.6, "unit": "%"}, {"measurement": "Neu", "setting": "3 h", "value": 21.4, "unit": "%"}, {"measurement": "Plat", "setting": "3 h", "value": 120.7, "unit": "x10_4/uL"}, {"measurement": "RBC", "setting": "3 h", "value": 607.4, "unit": "x10_4/ul"}, {"measurement": "Ret", "setting": "3 h", "value": 10.1, "unit": "%"}, {"measurement": "WBC", "setting": "3 h", "value": 93.9, "unit": "x10_2/uL"}, {"measurement": "KIDNEY_L", "setting": "3 h", "value": 0.9, "unit": "g"}, {"measurement": "KIDNEY_R", "setting": "3 h", "value": 0.9, "unit": "g"}, {"measurement": "KIDNEY_TOTAL", "setting": "3 h", "value": 1.8, "unit": "g"}, {"measurement": "LIVER", "setting": "3 h", "value": 9.5, "unit": "g"}, {"measurement": "A/G", "setting": "3 h", "value": 1}, {"measurement": "ALP", "setting": "3 h", "value": 1634.6, "unit": "IU/L"}, {"measurement": "ALT", "setting": "3 h", "value": 41.6, "unit": "IU/L"}, {"measurement": "AST", "setting": "3 h", "value": 76, "unit": "IU/L"}, {"measurement": "BUN", "setting": "3 h", "value": 12.6, "unit": "mg/dL"}, {"measurement": "CRE", "setting": "3 h", "value": 0.1, "unit": "mg/dL"}, {"measurement": "Ca", "setting": "3 h", "value": 10.9, "unit": "mg/dL"}, {"measurement": "Cl", "setting": "3 h", "value": 103.3, "unit": "meq/L"}, {"measurement": "DBIL", "setting": "3 h", "value": 0, "unit": "mg/dL"}, {"measurement": "GLC", "setting": "3 h", "value": 177.4, "unit": "mg/dL"}, {"measurement": "IP", "setting": "3 h", "value": 8.2, "unit": "mg/dL"}, {"measurement": "K", "setting": "3 h", "value": 4.2, "unit": "meq/L"}, {"measurement": "LDH", "setting": "3 h", "value": 224.4, "unit": "IU/L"}, {"measurement": "Na", "setting": "3 h", "value": 139.9, "unit": "meq/L"}, {"measurement": "PL", "setting": "3 h", "value": 185.8, "unit": "mg/dL"}, {"measurement": "RALB", "setting": "3 h", "value": 2.9, "unit": "g/dL"}, {"measurement": "TBIL", "setting": "3 h", "value": 0.008, "unit": "mg/dL"}, {"measurement": "TC", "setting": "3 h", "value": 87.2, "unit": "mg/dL"}, {"measurement": "TG", "setting": "3 h", "value": 201.5, "unit": "mg/dL"}, {"measurement": "TP", "setting": "3 h", "value": 5.7, "unit": "g/dL"}, {"measurement": "gamma-GTP", "setting": "3 h", "value": 0.6, "unit": "IU/L"}, {"measurement": "TERMINAL_BW", "setting": "6 h", "value": 206.2, "unit": "g"}, {"measurement": "Bas", "setting": "6 h", "value": 0, "unit": "%"}, {"measurement": "Eos", "setting": "6 h", "value": 0, "unit": "%"}, {"measurement": "Hb", "setting": "6 h", "value": 12.9, "unit": "g/dL"}, {"measurement": "Ht", "setting": "6 h", "value": 39.5, "unit": "%"}, {"measurement": "Lym", "setting": "6 h", "value": 77.6, "unit": "%"}, {"measurement": "MCH", "setting": "6 h", "value": 20.7, "unit": "pg"}, {"measurement": "MCHC", "setting": "6 h", "value": 32.7, "unit": "%"}, {"measurement": "MCV", "setting": "6 h", "value": 63.5, "unit": "fL"}, {"measurement": "Mono", "setting": "6 h", "value": 3.6, "unit": "%"}, {"measurement": "Neu", "setting": "6 h", "value": 17.2, "unit": "%"}, {"measurement": "Plat", "setting": "6 h", "value": 124.3, "unit": "x10_4/uL"}, {"measurement": "RBC", "setting": "6 h", "value": 622.8, "unit": "x10_4/ul"}, {"measurement": "Ret", "setting": "6 h", "value": 9, "unit": "%"}, {"measurement": "WBC", "setting": "6 h", "value": 124.3, "unit": "x10_2/uL"}, {"measurement": "KIDNEY_L", "setting": "6 h", "value": 0.9, "unit": "g"}, {"measurement": "KIDNEY_R", "setting": "6 h", "value": 0.9, "unit": "g"}, {"measurement": "KIDNEY_TOTAL", "setting": "6 h", "value": 1.8, "unit": "g"}, {"measurement": "LIVER", "setting": "6 h", "value": 9, "unit": "g"}, {"measurement": "A/G", "setting": "6 h", "value": 1}, {"measurement": "ALP", "setting": "6 h", "value": 1407.6, "unit": "IU/L"}, {"measurement": "ALT", "setting": "6 h", "value": 35, "unit": "IU/L"}, {"measurement": "AST", "setting": "6 h", "value": 66, "unit": "IU/L"}, {"measurement": "BUN", "setting": "6 h", "value": 9, "unit": "mg/dL"}, {"measurement": "CRE", "setting": "6 h", "value": 0.1, "unit": "mg/dL"}, {"measurement": "Ca", "setting": "6 h", "value": 10.7, "unit": "mg/dL"}, {"measurement": "Cl", "setting": "6 h", "value": 104.4, "unit": "meq/L"}, {"measurement": "DBIL", "setting": "6 h", "value": 0, "unit": "mg/dL"}, {"measurement": "GLC", "setting": "6 h", "value": 169, "unit": "mg/dL"}, {"measurement": "IP", "setting": "6 h", "value": 8.9, "unit": "mg/dL"}, {"measurement": "K", "setting": "6 h", "value": 4.3, "unit": "meq/L"}, {"measurement": "LDH", "setting": "6 h", "value": 174.6, "unit": "IU/L"}, {"measurement": "Na", "setting": "6 h", "value": 140.3, "unit": "meq/L"}, {"measurement": "PL", "setting": "6 h", "value": 158.2, "unit": "mg/dL"}, {"measurement": "RALB", "setting": "6 h", "value": 2.9, "unit": "g/dL"}, {"measurement": "TBIL", "setting": "6 h", "value": 0.008, "unit": "mg/dL"}, {"measurement": "TC", "setting": "6 h", "value": 80.8, "unit": "mg/dL"}, {"measurement": "TG", "setting": "6 h", "value": 101.9, "unit": "mg/dL"}, {"measurement": "TP", "setting": "6 h", "value": 5.7, "unit": "g/dL"}, {"measurement": "gamma-GTP", "setting": "6 h", "value": 0.7, "unit": "IU/L"}]}]}
